In patent EP0795549A1, “Bis-aryloxy(amino)-triazinyl-oxy(amino)aryl derivatives, their preparation and their use as antiviral agents” (American Cyanamid Company, priority 1996, dated 1997):
Structures can show the parent of a compound that is named as a salt. Where two headings read alike, the source gives them in different places.

Experiments:
HSV1 (Patton) = experiment: viral yield reduction (growth inhibition) assay, HSV; type: cell-based, Herpes Simplex Virus; conditions: for Antiviral IC50 µg/ml HSV Vero: Table 1a, format not given; for IC50 µG/mL IN GROWTH […]/ HF: HF host cells
Experimental: (§1) The compounds were tested for biological activity using viral yield reduction assays. Host cells (indicated as HF for human foreskin fibroblasts and as vero, the commonly used African green monkey cell line, in Tables 1 and 1a) were plated at 4 x 10^4 cells/well in cell growth medium with 2% fetal bovine serum or 2% calf serum in 96-well plates (0.1 ml/well) and incubated overnight. The compounds were added to individual wells to give final concentrations ranging from 50 to 0.1 µg/ml in two-fold concentration steps. After 1 hour, virus was added, and the incubation was continued for 4 days with RSV or CMV and for 2 days with HSV. At the end of the experiment, the amount of virus growth was quantitated and the yield reduction at various concentrations of compound was calculated. This allows estimation of the concentration of compound giving 50% reduction in virus growth (IC50).

CMV (Ad169) [1] = experiment: viral yield reduction (growth inhibition) assay, CMV; type: cell-based, Cytomegalovirus; conditions: for Antiviral IC50 µg/ml CMV /HF: Table 1a; for IC50 µG/mL IN GROWTH […]/ HF: HF host cells
Experimental: as §1

RSV (A2) = experiment: viral yield reduction (growth inhibition) assay, RSV; type: cell-based, Respiratory Syncitial Virus; conditions: for IC50: human respiratory syncytial virus
Experimental: as §1

CMV (Ad169) [2] = experiment: viral plaque reduction assay, CMV; type: cell-based, Cytomegalovirus; conditions: CMV (Ad169), HF host cells; for IC50: Human betaherpesvirus 5, read-out: IC50µG/mL IN PLAQUE ASSAY CMV/ HF
RSV = experiment: viral plaque reduction assay, RSV; type: cell-based, Respiratory Syncitial Virus; conditions: RSV (A2), vero host cells
RSV A2 = type: in vivo, cotton rats; conditions: rat, in vivo
[3] = Table 1a, HF, yield reduction or plaque format not specified
[4] = Human betaherpesvirus 5, HF host cells, read-out: IC50 µG/mL IN GROWTH […]/ HF
[5] = HF host cells, read-out: IC50 µG/mL IN GROWTH […]/ HF
[6] = vero host cells, read-out: IC50 µG/mL IN GROWTH […]/ VERO

Molecule: 4',4-Bis-{4,6-bis-[3-(bis-carbamoylmethyl-1-sulfamoyl)-phenylamino]-[1,3,5]triazin-2-ylamino}-biphenyl-2,2'-dicarboxylic acid, disodium salt [Example 44]
- Antiviral IC50 µg/ml HSV Vero (HSV1 (Patton); HSV1 (Patton)): 15 µg/mL
- Antiviral IC50 µg/ml CMV /HF (CMV (Ad169) [1]; HF, format not given): 1.5 µg/mL
- Antiviral IC50 µg/ml RSV/ HF (RSV (A2); [3]): 0.6 µg/mL

Molecule: 4,4'-Bis[4,6-di[3-aminophenyl-N,N-bis(2-carbamoyl-ethyl)sulfonylimino]-1,3,5-triazin-2-ylamino]-bibenzyl-2,2'-disulfonic acid, disodium salt [Example 11]
- IC50 µG/mL IN GROWTH […]/ HF (CMV (Ad169) [1]): > 50 µg/mL
- IC50 µG/mL IN GROWTH […]/ HF (RSV (A2); HF host cells): 10 µg/mL
- IC50 µG/mL IN GROWTH […]/ VERO (RSV (A2); vero host cells): 10 µg/mL

Molecule: 4,4'-Bis[4,6-di[3-aminophenyl-N,N-bis(2-carbamoyl-ethyl)sulfonylimino]-1,3,5-triazin-2-yloxy]-biphenyl-2,2'-disulfonic acid, disodium salt [Example 19]
- IC50 µG/mL IN GROWTH […]/ HF (HSV1 (Patton); HSV1 (Patton)): 30 µg/mL
- IC50 µG/mL IN GROWTH […]/ VERO (HSV1 (Patton); HSV1 (Patton), vero host cells): ~50 µg/mL
- IC50 µG/mL IN GROWTH […]/ HF (CMV (Ad169) [1]): 12 µg/mL
- IC50 µG/mL IN GROWTH […]/ HF (RSV (A2); HF host cells): 2 µg/mL
- IC50 µG/mL IN GROWTH […]/ VERO (RSV (A2); vero host cells): 3 µg/mL

Molecule: 4,4'-Bis[4,6-di[3-aminophenyl-N,N-bis(2-hydroxyethyl)sulfonyliminol-1,3,5-triazin-2-ylamino]-biphenyl-2,2'-disulfonic acid, disodium salt [Example 22]
- IC50µG/mL IN PLAQUE ASSAY CMV/ HF (CMV (Ad169) [2]): 2 µg/mL
- IC50 µG/mL IN GROWTH […]/ HF (CMV (Ad169) [1]): 4 µg/mL
- IC50 µG/mL IN GROWTH […]/ HF (RSV (A2); HF host cells): 0.15 µg/mL
- IC50 µG/mL IN GROWTH […]/ VERO (RSV (A2); vero host cells): 0.25 µg/mL

Molecule: 4,4'-Bis[4,6-di[3-aminophenyl-N,N-bis(3-hydroxypropyl)-sulfonylimino]-1,3,5-triazin-2-ylamino]-biphenyl-2,2'-disulfonic acid, disodium salt [Example 59]
- Antiviral IC50 µg/ml HSV Vero (HSV1 (Patton); HSV1 (Patton)): 20 µg/mL
- Antiviral IC50 µg/ml CMV /HF (CMV (Ad169) [1]; HF, format not given): 4 µg/mL
- Antiviral IC50 µg/ml RSV/ HF (RSV (A2); [3]): 0.5 µg/mL

Molecule: 4,4'-Bis[4,6-di[4-amino-N'-[3-aminophenyl-N,N-bis(2-hydroxyethyl)sulfonylimino]-benzensulfonamide]-1,3,5-triazin-2-ylamino]-stilbene-2,2'-disulfonic acid, disodium salt [Example 25]
- IC50 µG/mL IN GROWTH […]/ VERO (RSV (A2); vero host cells): 30 µg/mL

Molecule: 4,4'-Bis[4,6-di[4-aminophenyl-N,N-bis(2-carbamoyl-ethyl)sulfonylimino]-1,3,5-triazin-2-ylamino]-biphenyl-2,2'-disulfonic acid, disodium salt [Example 13]
- IC50 µG/mL IN GROWTH […]/ HF (HSV1 (Patton); HSV1 (Patton)): 10 µg/mL
- IC50 µG/mL IN GROWTH […]/ VERO (HSV1 (Patton); HSV1 (Patton), vero host cells): 30 µg/mL
- IC50 µG/mL IN GROWTH […]/ HF (CMV (Ad169) [1]): 20 µg/mL
- IC50 µG/mL IN GROWTH […]/ HF (RSV (A2); HF host cells): 8 µg/mL
- IC50 µG/mL IN GROWTH […]/ VERO (RSV (A2); vero host cells): 8 µg/mL

Molecule: 4,4'-Bis[4,6-di[4-aminophenyl-N,N-bis(2-carbamoyl-ethyl)sulfonylimino]-1,3,5-triazin-2-ylamino]-stilbene-2,2'-disulfonic acid, disodium salt [Example 12]
- IC50µG/mL IN PLAQUE ASSAY CMV/ HF (CMV (Ad169) [2]): 10 µg/mL
- IC50µG/mL IN PLAQUE ASSAY RSV/ VERO (RSV): 8 µg/mL

Molecule: 4,4'-Bis[4-chloro-6-[3-aminophenyl-N,N-bis(2-carbamoylethyl)sulfonylimino]-1,3,5-triazin-2-ylamino]-stilbene-2,2'-disulphonic acid, disodium salt [Example 8]
- IC50 µG/mL IN GROWTH […]/ HF (CMV (Ad169) [1]): > 50 µg/mL
- IC50 µG/mL IN GROWTH […]/ HF (RSV (A2); HF host cells): > 50 µg/mL
- IC50 µG/mL IN GROWTH […]/ VERO (RSV (A2); vero host cells): > 50 µg/mL

Molecule: 4,4'-Bis[4-chloro-6-di[4-amino-N'-[3-aminophenyl-N,N-bis(2-carbamoylethyl)sulfonylimino]-benzamide]-1,3,5-triazin-2-ylamino]-stilbene-2,2' -disulfonic acid, disodium salt [Example 24]
- IC50 µG/mL IN GROWTH […]/ VERO (RSV (A2); vero host cells): 50 µg/mL

Molecule: 4-[4,6-Di[3-aminophenyl-N,N-bis(2-carbamoylethyl)sulfonylimino]-1,3,5-triazin-2-ylamino]-4'-[4-[3-aminophenyl-N,N-bis(2-carbamoylethyl)sulfonylimino]-6-[3 -aminophenyl-N,N bis(3-propionic acid)]-1,3,5-triazin-2-ylamino]-stilbene-2,2'-disulphonic acid, disodium salt [Example 10]
- IC50 µG/mL IN GROWTH […]/ HF (RSV (A2); HF host cells): < 3 µg/mL
- IC50 µG/mL IN GROWTH […]/ VERO (RSV (A2); vero host cells): 0.7 µg/mL

Molecule: 4-[4,6-Di[3-aminophenyl-N,N-bis(2-carbamoylethyl)sulfonylimino]-1,3,5-triazin-2-ylamino]-4'-[4-[3-aminophenyl-N,N-bis(2-carbamoylethyl)sulfonylimino]-6-[3 -aminophenyl-N-(2-carbamoylethyl)-N'-(3-propionic acid)]-1,3,5-triazin-2-ylamino]stilbene-2,2'-disulphonic acid, disodium salt [Example 9]
- IC50µG/mL IN PLAQUE ASSAY CMV/ HF (CMV (Ad169) [2]): 10 µg/mL
- IC50µG/mL IN PLAQUE ASSAY RSV/ VERO (RSV): 0.3 µg/mL
- IC50 µG/mL IN GROWTH […]/ HF (RSV (A2); HF host cells): < 3 µg/mL
- IC50 µG/mL IN GROWTH […]/ VERO (RSV (A2); vero host cells): 0.4 µg/mL

Molecule: 4-[4,6-Di[3-aminophenyl-N,N-bis(2-carbamoylethyl)sulfonylimino]-1,3,5-triazin-2-ylamino]-4'-[4-chloro-6-[3-aminophenyl-N,N-bis(2-carbamoylethyl)sulfonylimino] -1,3,5-triazin-2-ylamino]-stilbene-2,2'-disulphonic acid, disodium salt [Example 7]
- IC50µG/mL IN PLAQUE ASSAY CMV/ HF (CMV (Ad169) [2]): 10 µg/mL
- IC50µG/mL IN PLAQUE ASSAY RSV/ VERO (RSV): 0.8 µg/mL
- IC50 µG/mL IN GROWTH […]/ HF (RSV (A2); HF host cells): 0.7 µg/mL
- IC50 µG/mL IN GROWTH […]/ VERO (RSV (A2); vero host cells): 1 µg/mL

Molecule: 5,5'-Dimethyl-4,4'-bis[4,6-di[3-aminophenyl-N,N-bis(2-carbamoyl-ethyl)sulfonylimino]-1,3,5-triazin-2-ylamino]-biphenyl-2,2'-disulfonic acid, disodium salt [Example 20]
- IC50 µG/mL IN GROWTH […]/ VERO (HSV1 (Patton); HSV1 (Patton), vero host cells): 40 µg/mL
- IC50 µG/mL IN GROWTH […]/ HF (RSV (A2); HF host cells): 0.5 µg/mL

Molecule: 9,9-Dioxo-2,7-Bis[4,6-di[3-aminophenyl-N,N-bis(2-carbamoylethyl)sulfonylimino]-1,3,5-triazin-2-ylamino]-dibenzothiophen-3,6-disulfonic acid, disodium salt [Example 23]
- IC50µG/mL IN PLAQUE ASSAY CMV/ HF (CMV (Ad169) [2]): 20 µg/mL
- IC50µG/mL IN PLAQUE ASSAY RSV/ VERO (RSV): 8 µg/mL

Molecule: NC(=O)CCN(CCC(N)=O)S(=O)(=O)c1cccc(Nc2nc(Cl)nc(Nc3cccc(S(=O)(=O)N(CCC(N)=O)CCC(N)=O)c3)n2)c1 [Example 6, 2-Chloro-4,6-di[3-aminophenyl-N,N-bis(2-carbamoyl-ethyl)sulfonylimino]-1,3,5-triazine]
- IC50 (CMV (Ad169) [1]; [4]): > 50 µg/mL
- IC50 (RSV (A2); [5]): > 50 µg/mL
- IC50 (RSV (A2); [6]): > 50 µg/mL

Molecule: NS(=O)(=O)c1cccc(Nc2nc(Nc3cccc(S(N)(=O)=O)c3)nc(Nc3ccc(/C=C/c4ccc(Nc5nc(Nc6cccc(S(N)(=O)=O)c6)nc(Nc6cccc(S(N)(=O)=O)c6)n5)cc4S(=O)(=O)O)c(S(=O)(=O)O)c3)n2)c1 [Example 15, 4,4'-Bis[4,6-di[3-aminophenylsulphonylamido]-1,3,5-triazin-2-ylamino]-stilbene-2,2'-disulfonic acid, disodium salt]
- IC50 (CMV (Ad169) [2]): 1 µg/mL
- IC50 (CMV (Ad169) [1]; [4]): 2 µg/mL
- IC50 (RSV (A2); [5]): 7 µg/mL
- IC50 (RSV (A2); [6]): > 8.3 µg/mL

Molecule: NS(=O)(=O)c1cccc(Nc2nc(Nc3cccc(S(N)(=O)=O)c3)nc(Nc3ccc(-c4ccc(Nc5nc(Nc6cccc(S(N)(=O)=O)c6)nc(Nc6cccc(S(N)(=O)=O)c6)n5)cc4S(=O)(=O)O)c(S(=O)(=O)O)c3)n2)c1 [Example 16, 4,4'-Bis[4,6-di[3-aminophenylsylphonylimido]-1,3,5-triazin-2-ylamino]-biphenyl-2,2'-disulfonic acid, disodium salt]
- IC50 (CMV (Ad169) [2]): 3 µg/mL
- IC50 (CMV (Ad169) [1]; [4]): 3 µg/mL
- IC50 (RSV (A2); [5]): 5 µg/mL
- IC50 (RSV (A2); [6]): ~8.3 µg/mL

Molecule: O=S(=O)(O)c1cc(O)ccc1-c1ccc(O)cc1S(=O)(=O)O [Example 17, 4,4'-Dihydroxybiphenyl-2,2'-disulfonic acid]
- IC50 (HSV1 (Patton); Human alphaherpesvirus 1, HSV1 (Patton), vero host cells, read-out: IC50 µG/mL IN GROWTH INHIBITION HSV/ VERO): > 50 µg/mL
- IC50 (RSV (A2); [5]): > 50 µg/mL
- IC50 (RSV (A2); [6]): > 50 µg/mL

Molecule: CC(O)CN(CC(C)O)S(=O)(=O)c1cccc(Nc2nc(Nc3cccc(S(=O)(=O)N(CC(C)O)CC(C)O)c3)nc(Nc3ccc(-c4ccc(Nc5nc(Nc6cccc(S(=O)(=O)N(CC(C)O)CC(C)O)c6)nc(Nc6cccc(S(=O)(=O)N(CC(C)O)CC(C)O)c6)n5)cc4C(=O)[O-])c(C(=O)[O-])c3)n2)c1.[Na+].[Na+] (stereo not drawn) [Example 41, 4,4'-Bis-(4,6-bis-{3-[bis-(2-hydroxy-propyl)-sulfamoyl]-phenylamino}-[1,3,5]triazin-2-ylamino)biphenyl-2,2'-dicarboxylic acid, disodium salt]
- IC50 (HSV1 (Patton); Human alphaherpesvirus 1, Vero, read-out: Antiviral IC50 µg/ml HSV Vero): > 50 µg/mL
- IC50 (CMV (Ad169) [1]; Human betaherpesvirus 5, Table 1a, HF, format not given, read-out: Antiviral IC50 µg/ml CMV /HF): 8 µg/mL
- IC50 (RSV (A2); Table 1a, HF, yield reduction or plaque format not specified, read-out: Antiviral IC50 µg/ml RSV/ HF): 2 µg/mL

Molecule: NC(=O)c1ncn([C@@H]2O[C@H](CO)[C@@H](O)[C@H]2O)n1 [Ribavirin, ribavirin, reference compound]
- Fold red. log10 (RSV A2): 0.8 log10
- Mean titer log10/g lung (RSV A2): 3.3 log10/g lung
